Assay results taken from patent publication US9241976B2, “Use of HDL-related molecules to treat and prevent proinflammatory conditions” (THE REGENTS OF THE UNIVERSITY OF CALIFORNIA, priority 2011, dated 2016).

Columns and labels:
HIF-1α [1] = experiment: HIF-1α protein expression in human ovarian cancer cell lines, Western blot; assay type: cell-based
Description: OV2008 cells were cultured in RPMI 1640 media with 10% fetal bovine serum, penicillin (100 U/ml), streptomycin (100 μg/ml), 1× minimal essential medium nonessential amino acid solution (Invitrogen, Carlsbad, Calif.), and insulin (0.25 U/ml) (Invitrogen). CAOV-3 cells were cultured in complete media consisting of Dulbecco's modified Eagle's medium with high glucose and L-glutamine (2 mM), 10% fetal bovine serum, penicillin (100 U/ml), streptomycin (100 μg/ml), and insulin (0.02 U/ml). To create hypoxic conditions, cells were transferred to a hypoxic chamber (model 3130; Thermo Fisher Scientific, Waltham, Mass.), where they were maintained at 37° C. in an atmosphere containing 5% CO2, 1% O2, and 94% N2. L-4F (the peptide Ac-D-W-F-K-A-F-Y-D-K-V-A-E-K-F-K-E-A-F-NH2 (SEQ ID NO: 12) synthesized from all L amino acids) was dissolved in water at 1 mg/ml (freshly prepared every time) and used between 1 and 10 μg/ml. L-5F was synthesized by Peptisyntha Inc. (Torrance, Calif.), dissolved in ABCT buffer (50 mM ammonium bicarbonate, pH 7.0, containing 0.1 mg/ml Tween 20) at 1 mg/ml, and diluted to the required concentrations before use. Cobalt chloride (CoCl2), insulin, cycloheximide (CHX), and N-(benzyloxycarbonyl)leucinylleucinylleucinal-Z-Leu-Leu-Leu-al (MG-132) were purchased from Sigma-Aldrich (St. Louis, Mo.). LPA (Avanti Polar Lipids, Alabaster, Ala.) in chloroform was dried as recommended by the manufacturer, dissolved in ethanol at a concentration of 20 mM as a stock solution, and diluted to the required concentrations in the corresponding cell culture media before use.
Western blot analyses were performed as described previously (Gao et al., 2011). In brief, cell lysates were collected in a lysis buffer containing 0.1 MNaCl, 5 mM EDTA, 50 μM sodium orthovanadate, 1% Triton X-100, and protease inhibitor tablet (Roche Diagnostics, Indianapolis, Ind.) in 50 mM Tris buffer, pH 7.5, loaded onto 4 to 12% Bis-Tris gel (Invitrogen), transferred to polyvinylidene difluoride membrane, and incubated with the appropriate antibodies. Anti-pThr^202/Tyr^204-Erk, anti-Erk, anti-pThr^389-p70 S6 kinase, anti-p70 S6 kinase, anti-pSer^473-Akt, and anti-Akt antibodies were purchased from Cell Signaling Technology (Danvers, Mass.); mouse anti-human HIF-1α antibody was purchased from BD Pharmingen (San Diego, Calif.); rabbit anti-mouse HIF-1α antibody was purchased from Abcam Inc. (Cambridge, Mass.); and anti-GAPDH antibody was purchased from Santa Cruz Biotechnology Inc. (Santa Cruz, Calif.).

HIF-1α [2] = experiment: Hypoxia response element (HRE) luciferase reporter assay in OV2008 cells; assay type: cell-based, human
Description: In brief, OV2008 cells were plated at 2×10^5 cells per well in a six-well plate and grown in complete media overnight. Then, pGL3-Epo-hypoxia response element (HRE)-Luc plasmid was transfected into cells by using Lipofectamine 2000 (Invitrogen). After 24 h, cells were starved overnight and subjected to L-4F treatment in the presence or absence of stimulators. A reporter assay system (Promega, Madison, Wis.) was used for the measurement of luciferase activity.

[3] = tested on: cis-platinum-resistant human ovarian cancer cells; conditions: reference (17); cited from earlier work
CT26 cells = experiment: CT26 cell viability, MTS assay; conditions: Example 6; MTS assay, within 48 hours of treatment

## Ac-DWFKAFYDKVAEKFKEAF-NH2 [L-4F, Ac-D-W-F-K-A-F-Y-D-K-V-A-E-K-F-K-E-A-F-NH2]
HIF-1α [1]; CAOV-3 cells
  CoCl2- and insulin-induced HIF-1α expression: dose-dependently inhibited
HIF-1α [1]; OV2008 cells stimulated first with CoCl2 or insulin 3 h or 24 h, 10 μg/ml
  HIF-1α expression, post-treatment: significantly decreased
HIF-1α [1]; OV2008 cells, pretreatment
  hypoxia-induced (low oxygen 1% O2, CoCl2) HIF-1α protein expression: dose-dependently suppressed
HIF-1α [1]; SKOV3 cells
  CoCl2- and insulin-induced HIF-1α expression: dose-dependently inhibited
HIF-1α [2]; OV2008 cells stimulated first with CoCl2 or insulin, 10 μg/ml
  transcription of downstream HIF-1α target genes (HRE reporter), post-treatment: inhibition of the transcription
HIF-1α [2]; OV2008 cells, 10 μg/ml pretreatment 1 h
  CoCl2- and insulin-mediated induction of HRE luciferase activity: significantly inhibited
[3]
  viability and proliferation: reduced
CT26 cells
  CT26 cell viability vs vehicle-treated controls: reduced cell viability
